Numbers after ± are expanded uncertainties.

For the data set the following is noted: 303.15 K; 101.33 kPa; Liquid; Vibrating tube method.
What is called mass density is the mass of a sample divided by its volume. Regarding `O=S1(=O)CCCC1` [sulfolane], the mass density was determined as 1265.75 ± 0.45 kg/m3.

With `Cc1ccccc1` [toluene], the mass density is 857.606 ± 0.18 kg/m3.

Take `NCCO.O=CO` [2-hydroxyethylammonium formate]: the mass density is listed as 1184.46 ± 1.2 kg/m3.

For the molecule `OCC(O)CO` [glycerol], the mass density is 1257.13 ± 0.25 kg/m3.

As to `CCCCCCCCCC` [decane], the mass density was found to be 722.439 ± 0.28 kg/m3.

(Values after the NIST ThermoML archive (doi:10.1016/j.fluid.2015.06.016).)
